For assay [1], the target named is T1, 47 kDa cytosolic oxidase factor (Homo sapiens, UniProt P14598).
T1 construct: endogenous in cells; host or cells: neutrophil cytosol, with neutrophil membrane, in the cell-free reaction
T1 sequence (P14598 1-390): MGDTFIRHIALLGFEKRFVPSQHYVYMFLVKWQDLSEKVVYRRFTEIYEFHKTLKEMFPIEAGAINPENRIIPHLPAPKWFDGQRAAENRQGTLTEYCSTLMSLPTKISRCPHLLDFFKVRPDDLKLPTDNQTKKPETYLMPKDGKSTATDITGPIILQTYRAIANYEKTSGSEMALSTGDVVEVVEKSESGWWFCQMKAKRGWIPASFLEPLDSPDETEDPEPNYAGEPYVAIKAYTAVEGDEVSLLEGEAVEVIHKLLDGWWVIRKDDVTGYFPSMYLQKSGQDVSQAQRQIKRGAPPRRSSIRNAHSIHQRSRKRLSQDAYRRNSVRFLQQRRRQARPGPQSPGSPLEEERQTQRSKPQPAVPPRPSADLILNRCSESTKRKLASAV
Put plainly: 47 kDa cytosolic protein phosphorylation in the cell-free reaction (immunoprecipitation, SDS-PAGE, autoradiography). The note with it: densitometry of autoradiograms; 3 independent experiments; read-out: Half-maximal inhibitory concentration, 47 kDa protein phosphorylation. Format: biochemical. Here is the method: Components of the cell-free phosphorylation reaction were identical to those for arachidonate-stimulated O2^- generation except for omission of acetylferricytochrome c and inclusion of γ-[^32 P]ATP (0.1 μCi/ml, sp. act. 5000 Ci/mmol). Twenty min after addition of arachidonate, aliquots of the cell-free reaction mixture were mixed with an equal volume of iced "stopping" buffer (150 mM NaCl, 10 mM EDTA, 1% deoxycholate, 1% NP-40, 50 mMNaF, 1 mMNa vanadate, 10 mM Tris, pH 7.4). Proteins bound to rabbit antibodies raised against recombinant 47 kDa protein (Lomax et al, Science, 245, 409-412 (1989)), were precipitated with protein G-sepharose (Harlow et al, Antibodies: A Laboratory Manual (Cold Spring Harbor Laboratory), 465-468 (1988)) and analyzed by SDS-PAGE and autoradiography with intensifying screens.
After stimulation of the neutrophil respiratory burst with phorbol esters the 47 kDa cytosolic oxidase factor is multiply phosphorylated and associates with plasma membrane. […] The immunoprecipitated proteins were analyzed by SDS-PAGE and autoradiography as described above. […] The half-maximal inhibitory concentration of 91 kDa cytochrome b558 carboxyterminal peptide determined by densitometry of autoradiograms was in the range of 25-50 μM in each of 3 independent experiments.

In assay [2] the target is T2, NADPH oxidase (Homo sapiens, UniProt P14598).
T2 construct: Neutrophils were electropermeabilized as described; endogenous in cells; host or cells: electropermeabilized peripheral blood neutrophils (PMN), stimulated with PMA or fMLP
T2 sequence (P14598 1-390): T1 sequence (P14598 1-390)
In words: Cell-free NADPH oxidase assay (arachidonate-stimulated O2 generation, neutrophil membrane plus cytosol). Format: biochemical. The note with it: peptide and arachidonate added simultaneously; 5 experiments; IC50 by interpolation; read-out: Mean IC50 ±SEM, inhibition of NADPH oxidase activation. Here is the method: Neutrophils were isolated from peripheral blood and cytosol and membrane fractions were prepared by differential centrifugation as previously described (Nunoi et al, Science, 242, 1298-1301 (1988)). Typical yields of cytosol and membrane proteins obtained were 2.8±0.1 mg/10^8 cell equivalents and 1.5±0.1 μg/10^6 cell equivalents, respectively (mean±SD, 3 separate preparations). The cell-free assay of O2 generation was modified as follows: wells contained 2.5-5.0×10^5cell equivalents neutrophil membrane, 10^6 cell equivalents neutrophil cytosol in a final volume of 100 μl reaction mixture (150 μM acetylated ferricytochrome c (11), 4 mM MgCl2, 10 μM FAD, 1 mM EGTA, 200 μM NADPH, 40 μM arachidonic acid, 10 μM GTPγ S, ±25 μg/ml superoxide dismutase in 75 mM potassium phosphate, pH 7.0). Because membrane preparations varied in activity, the amount of membrane added per well was adjusted to yield an arachidonate-stimulated O2 production of ≈0.4 nmol/min/well in the absence of synthetic peptide. The maximal linear rate of superoxide dismutase-inhibitable acetylferricytochrome c reduction (ΔO.D. […]) was converted to nmol O2 generated/min using an instrument-corrected extinction coefficient derived empirically as described (Leslie, J. Immunol. Methods, 103, 253-259 (1987)). To measure oxidase inhibition by antibodies directed against the 91 kDa subunit of cytochrome b558 membranes were solubilized in 1% deoxycholate, incubated for 30 min on ice with an equal volume of serum at various dilutions. Diluting these samples 10-fold with H2 O lowered the detergent concentration below the CMC and allowed sedimentation (130,000 g×30 min) of an oxidase-competent membrane fraction. This fraction was resolubilized in deoxycholate, and assayed for arachidonate-stimulatedO2 generation in the presence of cytosol.
In Table 1 above, the cell-free assay of O2 generation contained 2.5-5.0×10^5 cell equivalents of neutrophil (PMN) membrane, 10^6 cell equivalents PMN cytosol in a final volume of 100 μl reaction mixture. Because membrane preparations varied in activity, the amount of membrane added per well was adjusted to yield an arachidonate-stimulated O2 production of ≈0.4 nmol/min/well in the absence of synthetic peptide. Data represent the mean percent inhibition obtained in n experiments (each performed in duplicate) in the presence of 100 μM synthetic peptide compared to a simultaneous buffer control.

Where a SMILES comes first, the peptide text is derived from it.

On to `CC[C@H](C)[C@H](NC(=O)[C@H](Cc1ccccc1)NC(=O)[C@H](Cc1c[nH]cn1)NC(=O)[C@@H](NC(=O)CNC(=O)[C@H](CCCNC(=N)N)NC(=O)[C@@H]1CCCN1C(=O)CNC(=O)[C@H](CO)NC(=O)[C@H](CCC(=O)O)NC(=O)[C@H](CO)NC(=O)[C@H](CC(N)=O)NC(=O)[C@H](CO)NC(=O)[C@@H](N)CS)C(C)C)C(=O)N[C@@H](Cc1ccccc1)C(=O)N[C@@H](CC(N)=O)C(=O)N[C@@H](CCCCN)C(=O)N[C@@H](CCC(=O)O)C(=O)N[C@@H](CC(N)=O)C(=O)N[C@@H](Cc1ccccc1)C(=O)O` (H-CSNSESGPRGVHFIFNKENF-OH), for which the values for the IC50 in assay [1] and in assay [2] were 25 to 50 µM and 32 ± 2 µM, respectively.

The values above are taken from patent publication US5593966A, “Peptide derivatives of cytochrome b558 and their use as medicaments” (The United States of America as represented by the …, priority 1990, dated 1997).
